Results published in US20200347043A1, “MODULATORS OF THE INTEGRATED STRESS PATHWAY” (Calico Life Sciences LLC, priority 2019, published 2020).

tested on: HEK293T cells carrying the ATF4 luciferase reporter; test: ATF4-Luc assay (in vitro model of VWMD); type: cell-based, human; conditions: 1 μg/mL tunicamycin, 7 hours, One Glo luminescence
Procedure: In order to test exemplary compounds of the invention in a cellular context, a stable VWMD cell line was first constructed. The ATF4 reporter was prepared by fusing the human full-length ATF4 5′-UTR (NCBI Accession No. BC022088.2) in front of the firefly luciferase (FLuc) coding sequence lacking the initiator methionine as described in Sidrauski et al (eLife 2013). The construct was used to produce recombinant retroviruses using standard methods and the resulting viral supernatant was used to transduce HEK293T cells, which were then subsequently selected with puromycin to generate a stable cell line.
HEK293T cells carrying the ATF4 luciferase reporter were plated on polylysine coated 384-well plates (Greiner Bio-one) at 30,000 cells per well. Cells were treated the next day with 1 μg/mL tunicamycin and 200 nM of a compound of Formula (I) for 7 hours. Luminescence was measured using One Glo (Promega) as specified by the manufacturer. Cells were maintained in DMEM with L-glutamine supplemented with 10% heat-inactivated FBS (Gibco) and Antibiotic-Antimycotic solution (Gibco).
Table 4 below summarizes the EC50 data obtained using the ATF4-Luc assay for exemplary compounds of the invention.

In the case of `O=C(NC12CC(N3CCC(c4ccc(Cl)cc4)C3=O)(C1)C2)[C@H]1C[C@@H](O)c2cc(Cl)ccc2O1` (single isomer, unassigned) [Compound 226, (2R,4R)-6-chloro-N-{3-[(3S*)-3-(4-chlorophenyl)-2-oxopyrrolidin-1-yl]bicyclo[1.1.1]pentan-1-yl}-4-hydroxy-3,4-dihydro-2H-1-benzopyran-2-carboxamide], the EC50 is reported as 500 to 2000 nM.

same assay, conditions: Homo sapiens, HEK-293T, 1 μg/mL tunicamycin, 7 hours, One Glo luminescence

Compared with `O=C(COc1ccc(Cl)c(F)c1)N[C@H]1C[C@H]2O[C@@H]1C[C@@H]2c1nnc([C@H]2C[C@@H](OC(F)(F)F)C2)o1` (racemic) [Compound 168, 2-(4-chloro-3-fluorophenoxy)-N-[rac-(1R,2S,4R,5S)-5-{5-[cis-3-(trifluoromethoxy)cyclobutyl]-1,3,4-oxadiazol-2-yl}-7-oxabicyclo[2.2.1]heptan-2-yl]acetamide], `O=C(N[C@@H]1C[C@@H]2O[C@H]1C[C@H]2c1nnc([C@H]2C[C@@H](OC(F)(F)F)C2)o1)[C@@H]1C[C@@H](O)c2cc(Cl)ccc2O1` (racemic) [Compound 185, (2S,4R)-6-chloro-4-hydroxy-N-[(1RS,2SR,4RS,5SR)-5-{5-[cis-3-(trifluoromethoxy)cyclobutyl]-1,3,4-oxadiazol-2-yl}-7-oxabicyclo[2.2.1]heptan-2-yl]-3,4-dihydro-2H-1-benzopyran-2-carboxamide] is higher in EC50: 250 to 500 nM for the first, greater than 2000 nM for the second. The first is the more potent here.

First: O=C(NC12CCC(c3nnc([C@H]4C[C@@H](OC(F)(F)F)C4)o3)(CC1)CC2)[C@H]1C[C@@H](O)c2cc(Cl)ccc2O1 (racemic) [Compound 171, rac-(2R,4R)-6-chloro-4-hydroxy-N-(4-{5-[cis-3-(trifluoromethoxy)cyclobutyl]-1,3,4-oxadiazol-2-yl}bicyclo[2.2.2]octan-1-yl)-3,4-dihydro-2H-1-benzopyran-2-carboxamide]
Second: O=C(N[C@@H]1CC[C@@H](c2nnc([C@H]3C[C@@H](OC(F)(F)F)C3)o2)OC1)[C@@H]1C[C@H](O)c2cc(Cl)ccc2O1 (relative stereo) [Compound 170, (2S,4S)-6-chloro-4-hydroxy-N-[(3R,6S)-6-{5-[cis-3-(trifluoromethoxy)cyclobutyl]-1,3,4-oxadiazol-2-yl}oxan-3-yl]-3,4-dihydro-2H-1-benzopyran-2-carboxamide]
The EC50 of the first is lower: less than 10 nM for the first, 250 to 500 nM for the second. The first is the more potent here.

First: O=C(N[C@@H]1C[C@@H]2O[C@H]1C[C@H]2c1nnc([C@H]2C[C@@H](OC(F)(F)F)C2)o1)[C@@H]1C[C@H](O)c2cc(Cl)ccc2O1 (racemic) [Compound 186]
Second: O=C(CO[C@H]1C[C@@H](OC(F)(F)F)C1)N[C@H]1C[C@H]2C[C@@H]1C[C@@H]2NC(=O)[C@H]1C[C@@H](O)c2cc(Cl)ccc2O1 (relative stereo) [Compound 210, (2R,4R)-6-chloro-4-hydroxy-N-[(1R*,2S*,4R*,5S*)-5-(2-{[cis-3-(trifluoromethoxy)cyclobutyl]oxy}acetamido)bicyclo[2.2.1]heptan-2-yl]-3,4-dihydro-2H-1-benzopyran-2-carboxamide]
The EC50 of the first is higher: 10 to 50 nM for the first, less than 10 nM for the second.

`O=C(CO[C@H]1C[C@@H](OC(F)(F)F)C1)N[C@@H]1C[C@@H]2C[C@H]1C[C@H]2NC(=O)[C@H]1C[C@@H](O)c2cc(Cl)ccc2O1` (relative stereo) [Compound 211, (2R,4R)-6-chloro-4-hydroxy-N-[(1S*,2R*,4S*,5R*)-5-(2-{[cis-3-(trifluoromethoxy)cyclobutyl]oxy}acetamido)bicyclo[2.2.1]heptan-2-yl]-3,4-dihydro-2H-1-benzopyran-2-carboxamide] and `O=C(CO[C@H]1C[C@@H](OC(F)(F)F)C1)NC12CC(NC(=O)[C@H]3C[C@H](O)c4cc(Cl)ccc4O3)(C1)C2` (single isomer, unassigned) [Compound 293] cannot be ordered by EC50: less than 10 nM for the first, less than 10 nM for the second.

First: O=C(COc1ccc(Cl)c(F)c1)NC12CC(c3nnc([C@H]4C[C@@H](O)c5cc(Cl)ccc5O4)o3)(C1)C2 (relative stereo) [Compound 252, 2-(4-chloro-3-fluorophenoxy)-N-(3-{5-[(2R*,4R*)-6-chloro-4-hydroxy-3,4-dihydro-2H-1-benzopyran-2-yl]-1,3,4-oxadiazol-2-yl}bicyclo[1.1.1]pentan-1-yl)acetamide]
Second: O=C(COc1ccc(Cl)c(F)c1)NC12CC(c3nnc([C@@H]4C[C@H](O)c5cc(Cl)ccc5O4)o3)(C1)C2 (relative stereo) [Compound 253, 2-(4-chloro-3-fluorophenoxy)-N-(3-{5-[(2S*,4S*)-6-chloro-4-hydroxy-3,4-dihydro-2H-1-benzopyran-2-yl]-1,3,4-oxadiazol-2-yl}bicyclo[1.1.1]pentan-1-yl)acetamide]
The EC50 of the first is lower: less than 10 nM for the first, 10 to 50 nM for the second.

First: O=C(NC12CC(c3nc(-c4ccc(Cl)c(F)c4)no3)(C1)C2)[C@@H]1C[C@H](O)c2cc(Cl)ccc2O1 (single isomer, unassigned) [Compound 199]
Second: O=C(NC12CC(c3nc(-c4ccc(Cl)c(F)c4)no3)(C1)C2)[C@H]1C[C@@H](O)c2cc(Cl)ccc2O1 (single isomer, unassigned) [Compound 202]
The EC50 of the first is higher: 50 to 250 nM for the first, less than 10 nM for the second. The second is the more potent here.

First: O=C(NC12CC(n3cnc(-c4ccc(C(F)(F)F)nc4)c3)(C1)C2)[C@@H]1C[C@H](O)c2cc(Cl)ccc2O1 (single isomer, unassigned) [Compound 200]
Second: O=C(NC12CC(N3CCC(c4ccc(Cl)cc4)C3=O)(C1)C2)[C@H]1C[C@@H](O)c2cc(Cl)ccc2O1 (single isomer, unassigned) [Compound 225, (2R,4R)-6-chloro-N-{3-[(3R*)-3-(4-chlorophenyl)-2-oxopyrrolidin-1-yl]bicyclo[1.1.1]pentan-1-yl}-4-hydroxy-3,4-dihydro-2H-1-benzopyran-2-carboxamide]
The EC50 of the first is lower: 50 to 250 nM for the first, 500 to 2000 nM for the second.

`O=C(CO[C@H]1C[C@@H](OC(F)(F)F)C1)NC12CCC(NC(=O)[C@@H]3C[C@@H](O)c4cc(Cl)ccc4O3)(CC1)C[C@@H]2O` (single isomer, unassigned) [Compound 279] and `O=C(NC12CCC(C(=O)NCc3ccc(C(F)(F)F)cn3)(CC1)CC2)[C@H]1C[C@@H](O)c2cc(Cl)ccc2O1` [Compound 107, (2R,4R)-6-chloro-4-hydroxy-N-[4-({[5-(trifluoromethyl)pyridin-2-yl]methyl}carbamoyl)bicyclo[2.2.2]octan-1-yl]-3,4-dihydro-2H-1-benzopyran-2-carboxamide] cannot be ordered by EC50: less than 10 nM for the first, less than 10 nM for the second.

Compared with `O=C1CC(C(=O)N[C@H]2C[C@H]3CC[C@@H](C2)N3CCCOc2ccc(Cl)cc2)Oc2ccc(Cl)cc21` (some centres unmarked) [Compound 101], `CN(C(=O)COc1ccc(Cl)c(F)c1)[C@H]1CC[C@H](NC(=O)[C@H]2C[C@@H](O)c3cc(Cl)ccc3O2)CC1` [Compound 102, (2R,4R)-6-chloro-N-[(1r,4R)-4-{[(4-chloro-3-fluorophenoxy)acetyl](methyl)amino}cyclohexyl]-4-hydroxy-3,4-dihydro-2H-1-benzopyran-2-carboxamide] is lower in EC50: greater than 2000 nM for the first, 10 to 50 nM for the second. The second is the more potent here.

Compared with `O=C(COc1ccc(Cl)c(F)c1)NC12CC(C(=O)NCC3CC(=O)c4cc(Cl)ccc4O3)(C1)C2` (centres unmarked) [Compound 103, 3-[2-(4-chloro-3-fluorophenoxy)acetamido]-N-[(6-chloro-4-oxo-3,4-dihydro-2H-1-benzopyran-2-yl)methyl]bicyclo[1.1.1]pentane-1-carboxamide], `O=C1C[C@H](C(=O)NC23CC(c4nnc(COc5ccc(Cl)c(F)c5)o4)(C2)C3)Oc2ccc(Cl)cc21` [Compound 108, (2R)-6-chloro-N-(3-{5-[(4-chloro-3-fluorophenoxy)methyl]-1,3,4-oxadiazol-2-yl}bicyclo[1.1.1]pentan-1-yl)-4-oxo-3,4-dihydro-2H-1-benzopyran-2-carboxamide] is lower in EC50: 50 to 250 nM for the first, less than 10 nM for the second. The second is the more potent here.

First: O=C(N[C@H]1CC[C@H](C(=O)NCc2ccc(C(F)(F)F)cn2)CC1)[C@H]1C[C@@H](O)c2cc(Cl)ccc2O1 [Compound 105]
Second: O=C1C[C@H](C(=O)NC23CCC(C(=O)NCc4ccc(C(F)(F)F)cn4)(CC2)CC3)Oc2ccc(Cl)cc21 [Compound 106, (2R)-6-chloro-4-oxo-N-[4-({[5-(trifluoromethyl)pyridin-2-yl]methyl}carbamoyl)bicyclo[2.2.2]octan-1-yl]-3,4-dihydro-2H-1-benzopyran-2-carboxamide]
The EC50 of the first is lower: less than 10 nM for the first, 10 to 50 nM for the second. The first is the more potent here.

Compared with `O=C1C[C@@H](C(=O)NC23CC(c4nnc(COc5ccc(Cl)c(F)c5)o4)(C2)C3)Oc2ccc(Cl)cc21` [Compound 109, (2S)-6-chloro-N-(3-{5-[(4-chloro-3-fluorophenoxy)methyl]-1,3,4-oxadiazol-2-yl}bicyclo[1.1.1]pentan-1-yl)-4-oxo-3,4-dihydro-2H-1-benzopyran-2-carboxamide], `O=C(NC12CC(c3nnc(COc4ccc(Cl)c(F)c4)o3)(C1)C2)[C@H]1C[C@@H](O)c2cc(Cl)ccc2O1` [Compound 110, (2R,4R)-6-chloro-N-(3-{5-[(4-chloro-3-fluorophenoxy)methyl]-1,3,4-oxadiazol-2-yl}bicyclo[1.1.1]pentan-1-yl)-4-hydroxy-3,4-dihydro-2H-1-benzopyran-2-carboxamide] is lower in EC50: 10 to 50 nM for the first, less than 10 nM for the second. The second is the more potent here.

`O=C(NC12CC(c3nnc(COc4ccc(Cl)c(F)c4)o3)(C1)C2)[C@@H]1C[C@H](O)c2cc(Cl)ccc2O1` [Compound 111, (2S,4S)-6-chloro-N-(3-{5-[(4-chloro-3-fluorophenoxy)methyl]-1,3,4-oxadiazol-2-yl}bicyclo[1.1.1]pentan-1-yl)-4-hydroxy-3,4-dihydro-2H-1-benzopyran-2-carboxamide] gave an EC50 of 10 to 50 nM.
